# From ChEMBL document CHEMBL1146164, “Synthesis and evaluation of aminomethyl dihydrocinnamates as a new class of PPAR ligands” (Bioorg Med Chem Lett, 2006)
# Columns and labels:
# [1] = biological target: T1, Peroxisome proliferator-activated receptor gamma (Homo sapiens, UniProt P37231)
# T1 sequence (P37231 whole entry): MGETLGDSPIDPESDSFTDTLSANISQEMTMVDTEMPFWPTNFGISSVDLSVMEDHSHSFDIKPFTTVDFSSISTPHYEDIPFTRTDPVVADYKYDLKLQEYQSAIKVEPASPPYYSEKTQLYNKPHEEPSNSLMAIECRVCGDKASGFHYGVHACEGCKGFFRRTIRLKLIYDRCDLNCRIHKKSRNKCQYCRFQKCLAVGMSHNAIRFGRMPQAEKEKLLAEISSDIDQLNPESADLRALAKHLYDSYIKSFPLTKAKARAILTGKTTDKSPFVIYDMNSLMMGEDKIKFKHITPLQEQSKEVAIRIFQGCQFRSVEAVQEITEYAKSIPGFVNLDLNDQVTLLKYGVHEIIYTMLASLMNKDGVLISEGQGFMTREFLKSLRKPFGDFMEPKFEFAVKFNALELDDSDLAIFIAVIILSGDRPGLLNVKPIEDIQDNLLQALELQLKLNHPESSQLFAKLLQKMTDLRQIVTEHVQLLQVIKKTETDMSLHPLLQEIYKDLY
# Description: Activity at human PPARgamma in CV1 cells
# [2] = biological target: T2, Peroxisome proliferator-activated receptor alpha (Homo sapiens, UniProt Q07869); experiment: Activity at human PPARalpha in CV1 cells; assay type: cell-based, CV-1
# T2 sequence (Q07869 whole entry): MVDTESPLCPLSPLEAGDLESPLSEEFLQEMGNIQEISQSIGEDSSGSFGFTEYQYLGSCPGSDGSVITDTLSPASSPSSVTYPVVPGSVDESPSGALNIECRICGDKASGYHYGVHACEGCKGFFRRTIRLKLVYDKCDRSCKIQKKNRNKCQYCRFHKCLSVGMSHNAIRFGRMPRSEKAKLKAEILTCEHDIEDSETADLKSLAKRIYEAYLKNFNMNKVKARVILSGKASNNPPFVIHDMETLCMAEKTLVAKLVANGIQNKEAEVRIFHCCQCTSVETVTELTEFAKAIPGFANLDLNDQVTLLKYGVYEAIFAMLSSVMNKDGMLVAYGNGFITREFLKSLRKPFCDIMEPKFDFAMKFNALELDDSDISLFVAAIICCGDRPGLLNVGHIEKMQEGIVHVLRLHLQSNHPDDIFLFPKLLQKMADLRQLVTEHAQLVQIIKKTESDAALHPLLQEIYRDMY
# [3] = biological target: T1, Peroxisome proliferator-activated receptor gamma; remark: listed apart in the source
# Description: Displacement of [3H]2-methyl-2-(4-{3-propyl-(5-pyridin-2yl-thiophene-2-sulfonyl)-amino]-pro-pyl}-phenoxy)-propionic acid from human PPARgamma
# [4] = biological target: T3, Peroxisome proliferator-activated receptor alpha (Homo sapiens) (UniProt Q07869); experiment: Activity at human PPARalpha in CV1 cells by CTF assay relative to 2-(4-{2-[3-(2,4-difluoro-phenyl)-1-heptyl-ureido]-ethyl}-phenoxy)-2-methyl-butyric acid; assay type: cell-based; conditions: CV-1
# T3 sequence (whole entry): T2 sequence (Q07869 whole entry)
# [5] = biological target: T2, Peroxisome proliferator-activated receptor alpha; experiment: Displacement of [3H]2-(4-{2-[3-(2,4-difluoro-phenyl)-1-heptyl-ureido]-ethyl}-phenoxy)-2-methyl-butyric acid from hPPARalpha
# Mus musculus = experiment: Reduction of plasma glucose level in db/db mouse at 30 mg/kg, po relative to rosiglitazone; assay type: functional; set-up: scale not given: the % may be the effect or the level left
# Rattus norvegicus = experiment: Reduction of plasma glucose level in orally dosed Zucker diabetic fatty rat; assay type: functional; conditions: ZDF, po
Compound,EC50 [1] [nM],EC50 [2] [nM],IC50 [3] [nM],Efficacy [4] [%],IC50 [5] [nM],Activity (Mus musculus) [%],ED50 (Rattus norvegicus) [mg/kg]
Cc1oc(-c2ccccc2)nc1CCOc1ccc(CCC(=O)O)c(CNC(=O)CCc2ccccc2)c1,1020,2800,161,32,4960,–,–
Cc1oc(-c2ccccc2)nc1CCOc1ccc(CCC(=O)O)c(CNC(=O)OC(C)C)c1,8,70,26,51,146,58,–
CC(C)(Oc1ccc(C(=O)c2ccc(Cl)cc2)cc1)C(=O)O [FENOFIBRIC ACID],–,2650,–,35,> 10000,–,–
Cc1sc(N2CCOCC2)nc1CCOc1ccc(CCC(=O)O)c(CNC(=O)OC(C)C)c1,28,986,22,37,1490,58,0.12
Cc1oc(-c2ccccc2)nc1CCOc1ccc(CCC(=O)O)c(CNC(=O)NCc2ccccc2)c1,2680,–,706,5,> 10000,–,–
Cc1oc(-c2ccccc2)nc1CCOc1ccc(CCC(=O)O)c(CNS(=O)(=O)Cc2ccccc2)c1,527,2940,72,33,3390,–,–
Cc1oc(-c2ccccc2)nc1CCOc1ccc(CCC(=O)O)c(CNC(=O)OCc2ccccc2)c1,115,515,91,54,441,–,–
Cc1oc(-c2ccc(-c3ccccc3)cc2)nc1CCOc1ccc(CCC(=O)O)c(CNC(=O)OC(C)C)c1,19,845,47,–,3490,56,0.02
Cc1oc(-c2ccc(-c3ncccn3)cc2)nc1CCOc1ccc(CCC(=O)O)c(CNC(=O)OC(C)C)c1,4,900,50,37,9940,52,0.04
Cc1oc(-c2ccccc2)nc1CCOc1ccc(CCC(=O)O)c(CNC(=O)Oc2cnccn2)c1,7,35,17,60,53,–,–
Cc1oc(-c2ccc(Oc3ccccc3)cc2)nc1CCOc1ccc(CCC(=O)O)c(CNC(=O)OC(C)C)c1,2,78,50,46,516,–,0.05
Cc1oc(-c2ccc(-c3ccccc3)cc2)nc1CCOc1ccc(CCC(=O)O)c(CNC(=O)Oc2cnccn2)c1,2,198,26,68,449,87,0.03
